One may read the IC50 as the point on the concentration scale where inhibition reaches its midpoint. Read a low IC50 as higher potency.

Results on five compounds are retold here after article PMC3618674 (Brain research, 2012).

SMILES strings stand for the structures. Where two headings read alike, the source gives them in different places.

Data set [1] has as its system L-DOPA methylation. It counts as in vivo, rat. Conditions: rats.
Data set [2] relates to L-DOPA methylation. Kind of data set: Animal experiment III: L-DOPA methylation in dopamine-depleted. It counts as in vivo, rat.
Data set [3] concerns HT22 mouse hippocampal neuronal cells. Kind of data set: Glutamate-induced oxidative cell death, MTT cell viability. It counts as cell-based. Conditions: 5 mM glutamate, 24 h, co-treatment.
Data set [4] shares this test system. Description: Glutamate-induced intracellular ROS accumulation. It is filed as cell-based. As to conditions: 5 mM glutamate.
In the next data set the test system is NF-κB. Description: NF-κB-Luc reporter transcriptional activity in glutamate-treated HT22 cells. It counts as cell-based, mouse. As to conditions: HT22 cells transfected with NF-κB-Luc; 5 mM glutamate, 40 μM (+)-catechin, 8 h.
Data set [5] relates to kainic acid-induced hippocampal neurodegeneration. Description: Animal experiment IV: kainic acid-induced rat hippocampal injury. It counts as in vivo. Conditions: rats.
Data set [6] relates to 6-hydroxydopamine-induced neuronal damage. Description: 6-hydroxydopamine-induced neuronal damage model. Conditions: data not shown.
Data set [7] concerns L-DOPA methylation. Conditions: rats; for effect on plasma 3-OMD levels: 400 mg/kg i.p. 2 h before L-DOPA/carbidopa 20/5 mg/kg; for effect on striatal 3-OMD levels / effect on striatal dopamine levels: 400 mg/kg i.p., striatum at 6 h after L-DOPA/carbidopa 20/5 mg/kg.
The target in data set [8] is T1, human liver catechol-O-methyltransferase (COMT) (Homo sapiens, UniProt P21964).
T1 sequence (P21964 1-221 isoform P21964-2): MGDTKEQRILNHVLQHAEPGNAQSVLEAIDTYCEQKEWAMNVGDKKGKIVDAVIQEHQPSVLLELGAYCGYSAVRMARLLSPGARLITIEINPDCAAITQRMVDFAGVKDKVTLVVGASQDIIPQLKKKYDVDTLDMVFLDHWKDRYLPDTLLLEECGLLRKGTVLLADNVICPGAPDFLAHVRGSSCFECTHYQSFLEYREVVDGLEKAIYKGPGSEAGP
Kind of data set: in vitro O-methylation of L-DOPA catalyzed by human liver cytosolic COMT. It counts as biochemical.

The nature of another data set: in vivo. As to conditions: rat, ip, 400 mg/kg.
In data set [9] the test system is 6-hydroxydopamine-induced neurotoxicity. As to conditions: ref Leaver et al., 2009; cited from earlier work.
Setting [10] is: reserpinized rats, co-treatment with L-DOPA/carbidopa 20/20 mg/kg.
Where [11] appears, read: rats, reserpine 5 mg/kg i.p. 18-20 h before.

As for `Oc1cc(O)c2c(c1)O[C@H](c1ccc(O)c(O)c1)[C@@H](O)C2` [(+)-catechin], in the data set with L-DOPA methylation [1] ((+)-catechin 400 mg/kg 2 h before L-DOPA/carbidopa 20/20 mg/kg, vs control), the “time required to reach maximal L-DOPA plasma concentration” value is listed as “modestly shifted to the right”. For the same compound, in the data set on L-DOPA methylation [1] (L-DOPA/carbidopa 20/20 mg/kg), the “effect on striatal 3-OMD levels” value is recorded as “markedly reduced” and the “effect on striatal dopamine levels” value is on record as “not significantly affected”. In the data set on L-DOPA methylation [2] (setting [10]), the “effect on striatal 3-OMD levels” value is “markedly reduced” and the “effect on striatal dopamine levels” value is recorded as “restored to levels comparable to those in normal rats”. For the same compound, the “effect on glutamate-induced cell death (cell viability)” value in [3] is recorded as “abrogated cell death in a concentration-dependent manner”. Also, the “effect on glutamate-induced accumulation of intracellular ROS” value in data set [4] is on record as “reduced”. Besides, the “effect on transcriptional activity of NF-κB” value in the data set with NF-κB is “significantly attenuated”. The “kainic acid-induced increase in GFAP expression in astrocytes” value in data set [5] ((+)-catechin 400 mg/kg 30 min before i.c.v. kainic acid, 24 h, CA3) is “reduced”. For the same compound, the “effect on kainic acid-induced seizure behavior” value in data set [5] ((+)-catechin 30 min before i.c.v. kainic acid) is given as “no appreciable behavioral differences”. The “protective effect in 6-hydroxydopamine-induced neuronal damage model” value in data set [6] was “did not show any appreciable protective effect”. In addition, in the data set on L-DOPA methylation [7], the “effect on plasma 3-OMD levels” value was “significantly reduced”, the “effect on striatal 3-OMD levels” value is “significantly reduced” and the “effect on striatal dopamine levels” value is listed as “only slightly changed”.
In data set [8], `Oc1cc(O)c2c(c1)O[C@H](c1ccc(O)c(O)c1)[C@H](O)C2` [(−)-epicatechin] yielded a concentration for half-maximal inhibition (IC50) of 10.7 ± 6.7 µM. Also, the concentration at 30 min in the data set “in vivo” was found to be 88.6 ± 39.2 µM. In addition, in the data set with L-DOPA methylation [7], the “effect on plasma 3-OMD levels” value is given as “did not have a similar effect”, the “effect on striatal 3-OMD levels” value is given as “no significant change” and the “effect on striatal dopamine levels” value is listed as “no significant change”.
On to `O=C(O[C@@H]1Cc2c(O)cc(O)cc2O[C@@H]1c1cc(O)c(O)c(O)c1)c1cc(O)c(O)c(O)c1` [EGCG, (−)-epigallocatechin-3-gallate], for which the “effect in 6-hydroxydopamine-induced neurotoxicity model” value in data set [9] was “ineffective”.
In turn, `O=c1c(O)c(-c2ccc(O)c(O)c2)oc2cc(O)cc(O)c12` [quercetin] gave an IC50 in data set [8] of 1.9 ± 0.4 µM. The concentration at 30 min in the data set “in vivo” stood at 12.6 ± 0.1 µM. Moreover, in the data set with L-DOPA methylation [7], the “effect on plasma 3-OMD levels” value is “did not have a similar effect”, the “effect on striatal 3-OMD levels” value is listed as “no significant change” and the “effect on striatal dopamine levels” value is given as “no significant change”.
As to `COC(=O)[C@H]1[C@H]2C[C@@H]3c4[nH]c5cc(OC)ccc5c4CCN3C[C@H]2C[C@@H](OC(=O)c2cc(OC)c(OC)c(OC)c2)[C@@H]1OC` [reserpine, reference compound], in the data set with L-DOPA methylation [2] (setting [11]), the “decrease of striatal dopamine levels compared to normal control animals” value was “over 80%” and the “striatal dopamine levels relative to non-reserpinized control rats” value is “approximately 20%”.
